# Assay results taken from patent publication US12215140B2, “Method of stabilizing protein contained in specimen and solution for stabilizing protein contained in specimen” (EIKEN KAGAKU KABUSHIKI KAISHA, priority 2018, dated 2025).
# Tested on: hemoglobin-haptoglobin complex
# Experiment: Stability of hemoglobin (as hemoglobin-haptoglobin complex) in samples preserved at 37° C. in preservation solution containing 1 unit/L haptoglobin, Hb measured by latex agglutination method (Examples 1 to 7)
# Design: species or system human
# Settings: 37° C.
# Outline: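 Hemoglobin (~300 µg/L) in 0.5% fecal suspension, or without feces, held at 37 °C for 0–21 days in 40 mmol/L HEPES pH 6.8, 0.1% BSA, 0.1% NaN3, 1 unit/L haptoglobin, with 0–100 mmol/L phenylboronic acid ± sugars. Hb quantified by latex agglutination with anti-human Hb rabbit polyclonal; recovery (%) relative to day 0.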
# [1] = Feces 1, sugar 50 mmol/L + phenylboronic acid 15 mmol/L, 0 days
# [2] = Feces 1, sugar 50 mmol/L + phenylboronic acid 15 mmol/L, 7 days
# [3] = Feces 1, sugar 50 mmol/L + phenylboronic acid 15 mmol/L, 14 days
# [4] = Feces 1, sugar 50 mmol/L + phenylboronic acid 15 mmol/L, 21 days
# [5] = Feces 1, sugar 100 mmol/L + phenylboronic acid 0.5 mmol/L, 0 days
# [6] = Feces 1, sugar 100 mmol/L + phenylboronic acid 0.5 mmol/L, 7 days
# [7] = Feces 1, sugar 100 mmol/L + phenylboronic acid 0.5 mmol/L, 14 days
# [8] = Feces 1, sugar 100 mmol/L + phenylboronic acid 15 mmol/L, 0 days
# [9] = Feces 1, sugar 100 mmol/L + phenylboronic acid 15 mmol/L, 0 days (Table 7)
# [10] = Feces 1, sugar 100 mmol/L + phenylboronic acid 15 mmol/L, 7 days
# [11] = Feces 1, sugar 100 mmol/L + phenylboronic acid 15 mmol/L, 7 days (Table 7)
# [12] = Feces 1, sugar 100 mmol/L + phenylboronic acid 15 mmol/L, 14 days
# [13] = Feces 1, sugar 100 mmol/L + phenylboronic acid 15 mmol/L, 14 days (Table 7)
# [14] = Feces 1, sugar 100 mmol/L + phenylboronic acid 15 mmol/L, 21 days
# [15] = Feces 1, sugar 100 mmol/L + phenylboronic acid 50 mmol/L, 0 days
# [16] = Feces 1, sugar 100 mmol/L + phenylboronic acid 50 mmol/L, 7 days
# [17] = Feces 1, sugar 100 mmol/L + phenylboronic acid 50 mmol/L, 14 days
# [18] = Feces 1, sugar 100 mmol/L, no phenylboronic acid, 0 days
# [19] = Feces 1, sugar 100 mmol/L, no phenylboronic acid, 7 days
# [20] = Feces 1, sugar 100 mmol/L, no phenylboronic acid, 14 days
# [21] = Feces 1, sugar 100 mmol/L, no phenylboronic acid, 21 days
# [22] = Feces 2, sugar 50 mmol/L + phenylboronic acid 15 mmol/L, 0 days
# [23] = Feces 2, sugar 50 mmol/L + phenylboronic acid 15 mmol/L, 7 days
# [24] = Feces 2, sugar 50 mmol/L + phenylboronic acid 15 mmol/L, 14 days
# [25] = Feces 2, sugar 50 mmol/L + phenylboronic acid 15 mmol/L, 21 days
# [26] = Feces 2, sugar 100 mmol/L + phenylboronic acid 0.5 mmol/L, 0 days
# [27] = Feces 2, sugar 100 mmol/L + phenylboronic acid 0.5 mmol/L, 7 days
# [28] = Feces 2, sugar 100 mmol/L + phenylboronic acid 0.5 mmol/L, 14 days
# [29] = Feces 2, sugar 100 mmol/L + phenylboronic acid 15 mmol/L, 0 days
# [30] = Feces 2, sugar 100 mmol/L + phenylboronic acid 15 mmol/L, 0 days (Table 7)
# [31] = Feces 2, sugar 100 mmol/L + phenylboronic acid 15 mmol/L, 7 days
# [32] = Feces 2, sugar 100 mmol/L + phenylboronic acid 15 mmol/L, 7 days (Table 7)
# [33] = Feces 2, sugar 100 mmol/L + phenylboronic acid 15 mmol/L, 14 days
# [34] = Feces 2, sugar 100 mmol/L + phenylboronic acid 15 mmol/L, 14 days (Table 7)
# [35] = Feces 2, sugar 100 mmol/L + phenylboronic acid 15 mmol/L, 21 days
# [36] = Feces 2, sugar 100 mmol/L + phenylboronic acid 50 mmol/L, 0 days
# [37] = Feces 2, sugar 100 mmol/L + phenylboronic acid 50 mmol/L, 7 days
# [38] = Feces 2, sugar 100 mmol/L + phenylboronic acid 50 mmol/L, 14 days
# [39] = Feces 2, sugar 100 mmol/L, no phenylboronic acid, 0 days
# [40] = Feces 2, sugar 100 mmol/L, no phenylboronic acid, 7 days
# [41] = Feces 2, sugar 100 mmol/L, no phenylboronic acid, 14 days
# [42] = Feces 2, sugar 100 mmol/L, no phenylboronic acid, 21 days
# [43] = Feces 3, sugar 50 mmol/L + phenylboronic acid 15 mmol/L, 0 days
structure (smiles),measurement,setting,value
"OC[C@@H](O)[C@@H](O)[C@H](O)[C@@H](O)CO [Sorbitol, sorbitol]",Hb concentration,[1],291 µg/L
same,Recovery ratio with respect to Hb concentration after 0 days,[1],100%
same,Hb concentration,[2],300 µg/L
same,Recovery ratio with respect to Hb concentration after 0 days,[2],103%
same,Hb concentration,[3],300 µg/L
same,Recovery ratio with respect to Hb concentration after 0 days,[3],103%
same,Hb concentration,[4],296 µg/L
same,Recovery ratio with respect to Hb concentration after 0 days,[4],102%
same,Hb concentration,[5],310 µg/L
same,Recovery ratio with respect to Hb after 0 days,[5],100%
same,Hb concentration,[6],206 µg/L
same,Recovery ratio with respect to Hb after 0 days,[6],66%
same,Hb concentration,[7],178 µg/L
same,Recovery ratio with respect to Hb after 0 days,[7],57%
same,Hb concentration,[8],287 µg/L
same,Recovery ratio with respect to Hb concentration after 0 days,[8],100%
same,Hb concentration,[9],301 µg/L
same,Recovery ratio with respect to Hb after 0 days,[9],100%
same,Hb concentration,[10],292 µg/L
same,Recovery ratio with respect to Hb concentration after 0 days,[10],102%
same,Hb concentration,[11],297 µg/L
same,Recovery ratio with respect to Hb after 0 days,[11],99%
same,Hb concentration,[12],294 µg/L
same,Recovery ratio with respect to Hb concentration after 0 days,[12],102%
same,Hb concentration,[13],295 µg/L
same,Recovery ratio with respect to Hb after 0 days,[13],98%
same,Hb concentration,[14],290 µg/L
same,Recovery ratio with respect to Hb concentration after 0 days,[14],101%
same,Hb concentration,[15],281 µg/L
same,Recovery ratio with respect to Hb after 0 days,[15],100%
same,Hb concentration,[16],274 µg/L
same,Recovery ratio with respect to Hb after 0 days,[16],98%
same,Hb concentration,[17],275 µg/L
same,Recovery ratio with respect to Hb after 0 days,[17],98%
same,Hb concentration,[18],283 µg/L
same,Recovery ratio with respect to Hb concentration after 0 days,[18],100%
same,Hb concentration,[19],143 µg/L
same,Recovery ratio with respect to Hb concentration after 0 days,[19],51%
same,Hb concentration,[20],102 µg/L
same,Recovery ratio with respect to Hb concentration after 0 days,[20],36%
same,Hb concentration,[21],97 µg/L
same,Recovery ratio with respect to Hb concentration after 0 days,[21],34%
same,Hb concentration,[22],281 µg/L
same,Recovery ratio with respect to Hb concentration after 0 days,[22],100%
same,Hb concentration,[23],280 µg/L
same,Recovery ratio with respect to Hb concentration after 0 days,[23],100%
same,Hb concentration,[24],252 µg/L
same,Recovery ratio with respect to Hb concentration after 0 days,[24],90%
same,Hb concentration,[25],222 µg/L
same,Recovery ratio with respect to Hb concentration after 0 days,[25],79%
same,Hb concentration,[26],301 µg/L
same,Recovery ratio with respect to Hb after 0 days,[26],100%
same,Hb concentration,[27],173 µg/L
same,Recovery ratio with respect to Hb after 0 days,[27],57%
same,Hb concentration,[28],154 µg/L
same,Recovery ratio with respect to Hb after 0 days,[28],51%
same,Hb concentration,[29],274 µg/L
same,Recovery ratio with respect to Hb concentration after 0 days,[29],100%
same,Hb concentration,[30],299 µg/L
same,Recovery ratio with respect to Hb after 0 days,[30],100%
same,Hb concentration,[31],276 µg/L
same,Recovery ratio with respect to Hb concentration after 0 days,[31],101%
same,Hb concentration,[32],300 µg/L
same,Recovery ratio with respect to Hb after 0 days,[32],100%
same,Hb concentration,[33],246 µg/L
same,Recovery ratio with respect to Hb concentration after 0 days,[33],90%
same,Hb concentration,[34],298 µg/L
same,Recovery ratio with respect to Hb after 0 days,[34],100%
same,Hb concentration,[35],219 µg/L
same,Recovery ratio with respect to Hb concentration after 0 days,[35],80%
same,Hb concentration,[36],275 µg/L
same,Recovery ratio with respect to Hb after 0 days,[36],100%
same,Hb concentration,[37],279 µg/L
same,Recovery ratio with respect to Hb after 0 days,[37],101%
same,Hb concentration,[38],284 µg/L
same,Recovery ratio with respect to Hb after 0 days,[38],103%
same,Hb concentration,[39],277 µg/L
same,Recovery ratio with respect to Hb concentration after 0 days,[39],100%
same,Hb concentration,[40],113 µg/L
same,Recovery ratio with respect to Hb concentration after 0 days,[40],41%
same,Hb concentration,[41],77 µg/L
same,Recovery ratio with respect to Hb concentration after 0 days,[41],28%
same,Hb concentration,[42],51 µg/L
same,Recovery ratio with respect to Hb concentration after 0 days,[42],18%
same,Hb concentration,[43],283 µg/L
same,Recovery ratio with respect to Hb concentration after 0 days,[43],100%
